Reference: patent publication US8461083B2, “Herbicidal compounds” (Syngenta Limited, priority 2008, dated 2013)

Key:
Assay type in all cases: in vivo
[1] = test system: Amaranthus retoflexus (AMARE); experiment: Pre-emergence herbicidal glasshouse test; conditions: pre-emergence (sprayed after one day cultivation), evaluated after 13 days, 100=total damage to plant, 0=no damage to plant; for PRE Application AMARE, damage to plant: 1000 g/ha
Experimental: (§1) Seeds of a variety of test species were sown in standard soil in pots (Alopecurus myosuroides (ALOMY), Setaria faberi (SETFA), Echinochloa crus-galli (ECHCG), Solanum nigrum (SOLNI) and Amaranthus retoflexus (AMARE)). After cultivation for one day (pre-emergence) or after 8 days cultivation (post-emergence) under controlled conditions in a glasshouse (at 24/16° C., day/night; 14 hours light; 65% humidity), the plants were sprayed with an aqueous spray solution derived from the formulation of the technical active ingredient in acetone/water (50:50) solution containing 0.5% Tween 20 (polyoxyethelyene sorbitan monolaurate, CAS RN 9005-64-5). Compounds were applied at 1000 g/ha. The test plants were then grown in a glasshouse under controlled conditions in a glasshouse (at 24/16° C., day/night; 14 hours light; 65% humidity) and watered twice daily. After 13 days for pre and post-emergence, the test was evaluated (100=total damage to plant; 0=no damage to plant).

[2] = test system: Alopecurus myosuroides (ALOMY); experiment: Pre-emergence herbicidal glasshouse test; conditions: pre-emergence (sprayed after one day cultivation), evaluated after 13 days, 100=total damage to plant, 0=no damage to plant; for PRE Application ALOMY, damage to plant: 1000 g/ha
Experimental: as §1

Setaria faberi (SETFA) [3] = experiment: Pre-emergence herbicidal glasshouse test; conditions: pre-emergence (sprayed after one day cultivation), evaluated after 13 days, 100=total damage to plant, 0=no damage to plant; for PRE Application SETFA, damage to plant: 1000 g/ha
Experimental: as §1

Solanum nigrum (SOLNI) [4] = experiment: Pre-emergence herbicidal glasshouse test; conditions: pre-emergence (sprayed after one day cultivation), evaluated after 13 days, 100=total damage to plant, 0=no damage to plant; for PRE Application SOLNI, damage to plant: 1000 g/ha
Experimental: as §1

[5] = test system: Echinochloa crus-galli (ECHCG); experiment: Pre-emergence herbicidal glasshouse test; conditions: pre-emergence (sprayed after one day cultivation), evaluated after 13 days, 100=total damage to plant, 0=no damage to plant; for PRE Application ECHCG, damage to plant: 1000 g/ha
Experimental: as §1

[6] = test system: Amaranthus retoflexus (AMARE); experiment: Post-emergence herbicidal glasshouse test; conditions: post-emergence (sprayed after 8 days cultivation), evaluated after 13 days, 100=total damage to plant, 0=no damage to plant; for POST Application AMARE, damage to plant: 1000 g/ha
Experimental: as §1

[7] = test system: Alopecurus myosuroides (ALOMY); experiment: Post-emergence herbicidal glasshouse test; conditions: post-emergence (sprayed after 8 days cultivation), evaluated after 13 days, 100=total damage to plant, 0=no damage to plant; for POST Application ALOMY, damage to plant: 1000 g/ha
Experimental: as §1

Setaria faberi (SETFA) [8] = experiment: Post-emergence herbicidal glasshouse test; conditions: post-emergence (sprayed after 8 days cultivation), evaluated after 13 days, 100=total damage to plant, 0=no damage to plant; for POST Application SETFA, damage to plant: 1000 g/ha
Experimental: as §1

Solanum nigrum (SOLNI) [9] = experiment: Post-emergence herbicidal glasshouse test; conditions: post-emergence (sprayed after 8 days cultivation), evaluated after 13 days, 100=total damage to plant, 0=no damage to plant; for POST Application SOLNI, damage to plant: 1000 g/ha
Experimental: as §1

[10] = test system: Echinochloa crus-galli (ECHCG); experiment: Post-emergence herbicidal glasshouse test; conditions: post-emergence (sprayed after 8 days cultivation), evaluated after 13 days, 100=total damage to plant, 0=no damage to plant; for POST Application ECHCG, damage to plant: 1000 g/ha
Experimental: as §1

## COCCn1c(=O)ccc2cc(C(=O)C3C(=O)CCCC3=O)c(C(F)(F)F)nc21 [Compound 2.22, 2-{8-(2-Methoxyethyl)-7-oxo-7,8-dihydro-2-trifluoromethyl-[1,8]-naphthyridine-3-carbony}-cyclohexane-1,3-dione]
[1]
  PRE Application AMARE, damage to plant: 100
[2]
  PRE Application ALOMY, damage to plant: 100
Setaria faberi (SETFA) [3]
  PRE Application SETFA, damage to plant: 100
Solanum nigrum (SOLNI) [4]
  PRE Application SOLNI, damage to plant: 100
[5]
  PRE Application ECHCG, damage to plant: 100
[6]
  POST Application AMARE, damage to plant: 80
[7]
  POST Application ALOMY, damage to plant: 80
Setaria faberi (SETFA) [8]
  POST Application SETFA, damage to plant: 80
Solanum nigrum (SOLNI) [9]
  POST Application SOLNI, damage to plant: 90
[10]
  POST Application ECHCG, damage to plant: 80

## COC(C)c1ccc2cc(C(=O)C3C(=O)CCCC3=O)c(C(F)(F)F)nc2n1 (stereo not drawn) [Compound 1.63, 2-[7-(1-methoxyethyl)-2-trifluoromethyl-[1,8]-naphthyridine-3-carbony]-cyclohexane-1,3-dione]
[1]
  PRE Application AMARE, damage to plant: 100
[2]
  PRE Application ALOMY, damage to plant: 70
Setaria faberi (SETFA) [3]
  PRE Application SETFA, damage to plant: 100
Solanum nigrum (SOLNI) [4]
  PRE Application SOLNI, damage to plant: 100
[5]
  PRE Application ECHCG, damage to plant: 100
[6]
  POST Application AMARE, damage to plant: 100
[7]
  POST Application ALOMY, damage to plant: 90
Setaria faberi (SETFA) [8]
  POST Application SETFA, damage to plant: 90
Solanum nigrum (SOLNI) [9]
  POST Application SOLNI, damage to plant: 80
[10]
  POST Application ECHCG, damage to plant: 90

## C/C=C/c1nc2nc(C(F)(F)F)c(C(=O)C3C(=O)CCCC3=O)cc2cc1F [Compound 1.72, 2-(6-fluoro-7-[(E)(prop-1-enyl)]-2-trifluoromethyl-[1,8]-naphthyridine-3-carbony)-cyclohexane-1,3-dione]
[1]
  PRE Application AMARE, damage to plant: 60
[2]
  PRE Application ALOMY, damage to plant: 30
Setaria faberi (SETFA) [3]
  PRE Application SETFA, damage to plant: 90
Solanum nigrum (SOLNI) [4]
  PRE Application SOLNI, damage to plant: 90
[5]
  PRE Application ECHCG, damage to plant: 90
[6]
  POST Application AMARE, damage to plant: 70
[7]
  POST Application ALOMY, damage to plant: 50
Setaria faberi (SETFA) [8]
  POST Application SETFA, damage to plant: 80
Solanum nigrum (SOLNI) [9]
  POST Application SOLNI, damage to plant: 60
[10]
  POST Application ECHCG, damage to plant: 70

## CCN(C)c1nc2nc(C(F)(F)F)c(C(=O)C3C(=O)CCCC3=O)cc2cc1F [Compound 1.81, 2-[6-fluoro-7-(N-methylethylamino)-2-trifluoromethyl-[1,8]-naphthyridine-3-carbony]-cyclohexane-1,3-dione]
[1]
  PRE Application AMARE, damage to plant: 100
[2]
  PRE Application ALOMY, damage to plant: 70
Setaria faberi (SETFA) [3]
  PRE Application SETFA, damage to plant: 100
Solanum nigrum (SOLNI) [4]
  PRE Application SOLNI, damage to plant: 100
[5]
  PRE Application ECHCG, damage to plant: 100
[6]
  POST Application AMARE, damage to plant: 90
[7]
  POST Application ALOMY, damage to plant: 70
Setaria faberi (SETFA) [8]
  POST Application SETFA, damage to plant: 80
Solanum nigrum (SOLNI) [9]
  POST Application SOLNI, damage to plant: 80
[10]
  POST Application ECHCG, damage to plant: 90

## Cc1nc2nc(C(F)(F)F)c(C(=O)C3C(=O)CCCC3=O)cc2cc1F [Compound 1.41, 2-[6-fluoro-7-methyl-2-trifluoromethyl-[1,8]-naphthyridine-3-carbony]-cyclohexane-1,3-dione]
[1]; Amaranthus retroflexus, 312 h, read-out: PRE Application AMARE, damage to plant
  pest or weed control at 1000 g/ha: 100%
[2]; Alopecurus myosuroides, 312 h, read-out: PRE Application ALOMY, damage to plant
  pest or weed control at 1000 g/ha: 90%
Setaria faberi (SETFA) [3]; Setaria faberi, 312 h, read-out: PRE Application SETFA, damage to plant
  pest or weed control at 1000 g/ha: 100%
Solanum nigrum (SOLNI) [4]; Solanum nigrum, 312 h, read-out: PRE Application SOLNI, damage to plant
  pest or weed control at 1000 g/ha: 100%
[5]; Echinochloa crus-galli, 312 h, read-out: PRE Application ECHCG, damage to plant
  pest or weed control at 1000 g/ha: 100%
[6]; Amaranthus retroflexus, 312 h, read-out: POST Application AMARE, damage to plant
  pest or weed control at 1000 g/ha: 100%
[7]; Alopecurus myosuroides, 312 h, read-out: POST Application ALOMY, damage to plant
  pest or weed control at 1000 g/ha: 90%
Setaria faberi (SETFA) [8]; Setaria faberi, 312 h, read-out: POST Application SETFA, damage to plant
  pest or weed control at 1000 g/ha: 100%
Solanum nigrum (SOLNI) [9]; Solanum nigrum, 312 h, read-out: POST Application SOLNI, damage to plant
  pest or weed control at 1000 g/ha: 90%
[10]; Echinochloa crus-galli, 312 h, read-out: POST Application ECHCG, damage to plant
  pest or weed control at 1000 g/ha: 90%

## O=C1CCCC(=O)C1C(=O)c1cc2cc(F)c(-c3ccsc3)nc2nc1C(F)(F)F [Compound 1.71]
[1]
  PRE Application AMARE, damage to plant: 0
[2]
  PRE Application ALOMY, damage to plant: 10
Setaria faberi (SETFA) [3]
  PRE Application SETFA, damage to plant: 70
Solanum nigrum (SOLNI) [4]
  PRE Application SOLNI, damage to plant: 70
[5]
  PRE Application ECHCG, damage to plant: 90
[6]
  POST Application AMARE, damage to plant: 100
[7]
  POST Application ALOMY, damage to plant: 30
Setaria faberi (SETFA) [8]
  POST Application SETFA, damage to plant: 80
Solanum nigrum (SOLNI) [9]
  POST Application SOLNI, damage to plant: 70
[10]
  POST Application ECHCG, damage to plant: 80
